Measurements published in PubChem BioAssay AID192 (DTP/NCI, 2004).
Values joined by “and” are separate entries in the source; they are usually repeats but may differ in a detail not shown here. Equal entries are not always repeated. Inconclusive results and toxic doses are left out.

Test system: BDF1 mice, B16 melanoma ip, median survival T/C
Test: NCI In Vivo Anticancer Drug Screen. Data for tumor model B16 Melanoma (intraperitoneal) in B6D2F1 (BDF1) mice
Settings: endpoint: median survival time, higher = longer survival
How it was run: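 Mice with transplantable tumors; drug vs vehicle groups; endpoint survival or tumor size; value = T/C.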

[1] = dose: 12.5 mg/kg/injection, schedule: Q01DX009 (ip), vehicle: saline with Tween-80
[2] = dose: 25.0 mg/kg/injection, schedule: Q01DX009 (ip), vehicle: saline with Tween-80
[3] = dose: 50.0 mg/kg/injection, schedule: Q01DX009 (ip), vehicle: saline with Tween-80
[4] = dose: 100.0 mg/kg/injection, schedule: Q01DX009 (ip), vehicle: saline with Tween-80
[5] = dose: 100.0 mg/kg/injection, schedule: Q01DX009 (ip), vehicle: Klucel (hydroxypropylcellulose) (HPC)
[6] = dose: 200.0 mg/kg/injection, schedule: Q01DX009 (ip), vehicle: Klucel (hydroxypropylcellulose) (HPC)
[7] = dose: 50.0 mg/kg/injection, schedule: Q01DX009 (ip), vehicle: Klucel (hydroxypropylcellulose) (HPC)

CCN1CSC(=S)N(CC)C1
T/C [1]: 104 % of control
T/C [2]: 102 % of control
T/C (dose: 25.0 mg/kg/injection, schedule: Q04DX003 (ip), vehicle: saline with Tween-80): 89 % of control
T/C [3]: 97 % of control
T/C (dose: 50.0 mg/kg/injection, schedule: Q04DX003 (ip), vehicle: saline with Tween-80): 100 % of control
T/C [4]: 100 % of control
T/C (dose: 100.0 mg/kg/injection, schedule: Q04DX003 (ip), vehicle: saline with Tween-80): 92 % of control

O=C1NC(c2ccccc2)C(=O)N1CCN(CCCl)CCCl (stereo unspecified)
T/C (dose: 1.56 mg/kg/injection, schedule: Q01DX009 (ip), vehicle: saline): 89 % of control and 109 % of control
T/C (dose: 3.12 mg/kg/injection, schedule: Q01DX009 (ip), vehicle: saline): 95 % of control and 114 % of control
T/C (dose: 6.25 mg/kg/injection, schedule: Q01DX009 (ip), vehicle: saline): 123 % of control
T/C (dose: 25.0 mg/kg/injection, schedule: Q01DX009 (ip), vehicle: saline): 115 % of control

OCC1OC(OC2(CO)OC(CO)C(O)C2O)C(O)C(O)C1O (stereo unspecified)
T/C (dose: 3.9 mg/kg/injection, schedule: Q01DX005 (ip), vehicle: saline): 104 % of control
T/C (dose: 7.81 mg/kg/injection, schedule: Q01DX005 (ip), vehicle: saline): 87 % of control
T/C (dose: 15.63 mg/kg/injection, schedule: Q01DX005 (ip), vehicle: saline): 105 % of control
T/C (dose: 31.25 mg/kg/injection, schedule: Q01DX005 (ip), vehicle: saline): 104 % of control
T/C (dose: 62.5 mg/kg/injection, schedule: Q01DX005 (ip), vehicle: saline): 105 % of control
T/C (dose: 125.0 mg/kg/injection, schedule: Q01DX005 (ip), vehicle: saline): 105 % of control
T/C (dose: 250.0 mg/kg/injection, schedule: Q01DX005 (ip), vehicle: saline): 109 % of control
T/C (dose: 500.0 mg/kg/injection, schedule: Q01DX005 (ip), vehicle: saline): 105 % of control
T/C (dose: 1000.0 mg/kg/injection, schedule: Q01DX005 (ip), vehicle: saline): 104 % of control
T/C (dose: 2000.0 mg/kg/injection, schedule: Q01DX005 (ip), vehicle: saline): 102 % of control

CCC1=C[C@H]2CN(CCc3c([nH]c4ccccc34)[C@@](C(=O)OC)(c3cc4c(cc3OC)N(C)[C@H]3[C@@](O)(C(=O)NC)[C@H](OC(C)=O)[C@]5(CC)C=CCN6CC[C@]43[C@@H]65)C2)C1
T/C (dose: 0.05 mg/kg/injection, schedule: Q01DX009 (ip), vehicle: Klucel (hydroxypropylcellulose) (HPC)): 119 % of control
T/C (dose: 0.06 mg/kg/injection, schedule: Q01DX009 (ip), vehicle: water): 156 % of control
T/C (dose: 0.1 mg/kg/injection, schedule: Q01DX009 (ip), vehicle: Klucel (hydroxypropylcellulose) (HPC)): 113 % of control
T/C (dose: 0.12 mg/kg/injection, schedule: Q01DX009 (ip), vehicle: water): 160 % of control and 183 % of control
T/C (dose: 0.12 mg/kg/injection, schedule: Q04DX003 (ip), vehicle: water): 123 % of control
T/C (dose: 0.2 mg/kg/injection, schedule: Q01DX009 (ip), vehicle: Klucel (hydroxypropylcellulose) (HPC)): 124 % of control
T/C (dose: 0.25 mg/kg/injection, schedule: Q01DX009 (ip), vehicle: water): 181 % of control and 220 % of control
T/C (dose: 0.5 mg/kg/injection, schedule: Q01DX009 (ip), vehicle: water): 157 % of control
T/C (dose: 0.5 mg/kg/injection, schedule: Q04DX003 (ip), vehicle: water): 156 % of control
T/C (dose: 1.6 mg/kg/injection, schedule: Q01DX009 (ip), vehicle: Klucel (hydroxypropylcellulose) (HPC)): 181 % of control

CCCCCCCCCCCCNC(=O)Nc1ccc(CC)cc1
T/C [5]: 92 % of control
T/C [6]: 100 % of control
T/C (dose: 400.0 mg/kg/injection, schedule: Q01DX009 (ip), vehicle: Klucel (hydroxypropylcellulose) (HPC)): 100 % of control

OCCN1CCN(CC/C=C2/c3ccccc3Sc3ccc(C(F)(F)F)cc32)CC1
T/C (dose: 0.25 mg/kg/injection, schedule: Q01DX009 (ip), vehicle: saline): 97 % of control
T/C (dose: 0.5 mg/kg/injection, schedule: Q01DX009 (ip), vehicle: saline): 106 % of control
T/C (dose: 1.0 mg/kg/injection, schedule: Q01DX009 (ip), vehicle: saline): 111 % of control
T/C (dose: 2.0 mg/kg/injection, schedule: Q01DX009 (ip), vehicle: saline): 105 % of control

CCC1OC(=O)CC(O)C(C)C(OC2OC(C)C(O)C(N(C)C)C2O)C(CC=O)CC(C)C(=O)/C=C/C2(C)OC2C1C (stereo unspecified)
T/C (dose: 12.5 mg/kg/injection, schedule: Q01DX009 (ip), vehicle: Klucel (hydroxypropylcellulose) (HPC)): 96 % of control
T/C (dose: 25.0 mg/kg/injection, schedule: Q01DX009 (ip), vehicle: Klucel (hydroxypropylcellulose) (HPC)): 97 % of control
T/C [7]: 98 % of control
T/C [5]: 88 % of control

CN(C)CCCN1c2ccccc2Sc2ccccc21
T/C (dose: 4.6 mg/kg/injection, schedule: Q01DX009 (ip), vehicle: saline): 111 % of control
T/C (dose: 9.3 mg/kg/injection, schedule: Q01DX009 (ip), vehicle: saline): 111 % of control
T/C (dose: 18.75 mg/kg/injection, schedule: Q01DX009 (ip), vehicle: saline with Tween-80): 101 % of control
T/C (dose: 18.75 mg/kg/injection, schedule: Q01DX009 (ip), vehicle: saline): 120 % of control
T/C (dose: 35.5 mg/kg/injection, schedule: Q01DX009 (ip), vehicle: saline): 111 % of control
T/C (dose: 37.5 mg/kg/injection, schedule: Q01DX009 (ip), vehicle: saline with Tween-80): 97 % of control
T/C (dose: 75.0 mg/kg/injection, schedule: Q01DX009 (ip), vehicle: saline with Tween-80): 95 % of control

Cc1ccccc1SSc1ccccc1C
T/C [1]: 105 % of control
T/C [2]: 104 % of control
T/C [3]: 98 % of control
T/C [4]: 103 % of control
T/C (dose: 200.0 mg/kg/injection, schedule: Q01DX009 (ip), vehicle: saline with Tween-80): 98 % of control

CC(=O)OC1C2CCC3C(C)(O)C4CC(O)C(C)(C)C4(O)C(O)CC13CC2(C)O (stereo unspecified)
T/C (dose: 2.0 micrograms/kg/injection, schedule: Q01DX009 (ip), vehicle: Klucel (hydroxypropylcellulose) (HPC)): 101 % of control
T/C (dose: 4.0 micrograms/kg/injection, schedule: Q01DX009 (ip), vehicle: Klucel (hydroxypropylcellulose) (HPC)): 92 % of control
T/C (dose: 8.0 micrograms/kg/injection, schedule: Q01DX009 (ip), vehicle: Klucel (hydroxypropylcellulose) (HPC)): 99 % of control
T/C (dose: 16.0 micrograms/kg/injection, schedule: Q01DX009 (ip), vehicle: Klucel (hydroxypropylcellulose) (HPC)): 98 % of control

OCCOCCN1CCN(CCCN2c3ccccc3Sc3ccc(C(F)(F)F)cc32)CC1
T/C (dose: 0.8 mg/kg/injection, schedule: Q01DX009 (ip), vehicle: saline): 106 % of control
T/C (dose: 1.6 mg/kg/injection, schedule: Q01DX009 (ip), vehicle: saline): 102 % of control
T/C (dose: 3.2 mg/kg/injection, schedule: Q01DX009 (ip), vehicle: saline): 102 % of control
T/C (dose: 6.4 mg/kg/injection, schedule: Q01DX009 (ip), vehicle: saline): 105 % of control
T/C (dose: 3.1 micrograms/kg/injection, schedule: Q01DX009 (ip), vehicle: saline): 108 % of control
T/C (dose: 6.2 micrograms/kg/injection, schedule: Q01DX009 (ip), vehicle: saline): 111 % of control
T/C (dose: 12.5 micrograms/kg/injection, schedule: Q01DX009 (ip), vehicle: saline): 123 % of control
T/C (dose: 25.0 micrograms/kg/injection, schedule: Q01DX009 (ip), vehicle: saline): 111 % of control
T/C (dose: 50.0 micrograms/kg/injection, schedule: Q01DX009 (ip), vehicle: saline): 109 % of control
T/C (dose: 100.0 micrograms/kg/injection, schedule: Q01DX009 (ip), vehicle: saline): 110 % of control
T/C (dose: 200.0 micrograms/kg/injection, schedule: Q01DX009 (ip), vehicle: saline): 110 % of control
T/C (dose: 400.0 micrograms/kg/injection, schedule: Q01DX009 (ip), vehicle: saline): 116 % of control

O=C1c2ccccc2C(=O)c2c(NCCCCCO)ccc(NCCCCCO)c21
T/C (dose: 8.0 mg/kg/injection, schedule: Q01DX009 (ip), vehicle: Klucel (hydroxypropylcellulose) (HPC)): 99 % of control
T/C (dose: 16.0 mg/kg/injection, schedule: Q01DX009 (ip), vehicle: Klucel (hydroxypropylcellulose) (HPC)): 95 % of control
T/C (dose: 32.0 mg/kg/injection, schedule: Q01DX009 (ip), vehicle: Klucel (hydroxypropylcellulose) (HPC)): 91 % of control

CC(=O)OC1c2ccccc2C(=O)C1(OC(C)=O)c1ccccc1 (stereo unspecified)
T/C [7]: 102 % of control
T/C [5]: 94 % of control
T/C [6]: 102 % of control
